Data on one compound can be found in US4223019A, “Synthetic peptides having pituitary growth hormone releasing activity” (Beckman Instruments, Inc., priority 1979, dated 1980).

In the experiment the test system is pituitaries removed from 20 day old female rats. Nature of the experiment: In Vitro Growth Hormone Release Study. To be noted: mean ± SEM, control -180 ± 108. The format is cell-based, rat. On the procedure:
Female rats of the CD-1 strain were housed in a constant temperature room at 24° C. with 14 hours light and 10 hours darkness. The rats were fed Purina brand rat chow ab libitum.
All studies were started between 0800 and 1000 hours.
Pituitaries were removed from 20 day old female rats. Two pituitaries were incubated at 36° C. in 1 ml of lactated Ringer's solution in 10 ml polytetrafluoroethylene beakers in a Dubnoff Shaker (90 cycles/min.). The pituitaries were incubated a total of 4 hours (P1, P2, I3, and I4). After two successive one hour preincubation periods (P1, P2), the peptide was added to the incubation medium hourly for 2 hours (I3, I4).
This in vitro study was performed in triplicate and a standard radioimmunoassay of growth hormone present in the incubation medium was performed in duplicate. The hormonal activity was calculated as the difference (Δ) of growth hormone (GH) levels between I3, I4 and P2, i.e., (I3 -P2) and (I4 -P2). P values were calculated by Students' t test using six growth hormone values for each value recorded.
The growth hormone radioimmunoassay reagents were distributed by the National Institute of Arthritis and […] (NIAMDD) program. The growth hormone values were calculated in terms of nanograms (ng) of a rat standard with a growth hormone potency of 0.61 units/mg.

Square brackets hold non-standard residues; d marks the D form. Peptide text beside a SMILES is read from it.

Regarding `NCCCC[C@@H](N)C(=O)N[C@@H](Cc1ccc(O)cc1)C(=O)N[C@H](Cc1c[nH]c2ccccc12)C(=O)N[C@H](Cc1c[nH]c2ccccc12)C(=O)N[C@@H](Cc1ccccc1)C(N)=O` [H2 N--D--Lys--Tyr--D--Trp--D--Trp--Phe--CONH2] (H-[dK]Y[dW][dW]F-NH2), the “IN VITRO GROWTH HORMONE RELEASE (ΔGH, I3-P2 and I4-P2)” value is 1046 ± 266 ngΔGH/ml incubation medium (peptide 1μg, P Value <0.01); 1487 ± 197 ngΔGH/ml incubation medium (peptide 20μg, P Value <0.001); 1654 ± 329 ngΔGH/ml incubation medium (peptide 100μg, P Value <0.001).
